# Laboratory results taken from patent publication EP4035684A1, “AFFINITY ILLUDOFULVENE CONJUGATES” (AF Chemical LLC, priority 2019, dated 2022).
# *1 amine or outer side, *2 acyl side, *3 side chain or, on linkers, in order; H or OH if unused. Where a SMILES comes first, the peptide text is derived from it. [ ]: non-standard residue; d: D form. The star is where a group is joined. ξ: configuration not given here. X2 = CC1=C(CCCN*)C2=C(C)C3(CC3)[C@@](C)(O)C(=O)C2=C1; X4 = CC1=C(C*)C2=C(C)C3(CC3)[C@@](C)(O)C(=O)C2=C1; Morpholide = C1CN(*)CCO1; CO = O=C([*:1])[*:2]; ξC = NC(CS)C(=O)O
# Columns and labels:
# 8392B cell line [1] = assay: Two hour toxicity: inhibition of DNA synthesis activity, nontarget cell line; format: cell-based; settings: read-out: Mean IC50 value (nM) ± SD, N=3 unless otherwise indicated; 8392B Nontarget Cell Line; 2 hr exposure; 8392B nontarget cell line, 2 hr exposure; mean ± SD, N=3 unless otherwise indicated
# 8392B cell line [2] = assay: cells; format: cell-based
# MV522 cell line [3] = assay: 48 hour exposure, growth or viability by Trypan Blue Exclusion assay, target cell line; format: cell-based; settings: read-out: Mean IC50 value (nM) ± SD, N=3 unless otherwise indicated
# NCI 60 cell line panel [4] = settings: cited from earlier work; for Mean TGI cytostatic / GI50: mean over NCI DTP 60 cell lines; for GI50: read-out: Mean GI50 inhibition; for CC50: human, nci 60 cell lines
# MV522 cell line [5] = assay: cells; format: cell-based; settings: read-out: Mean IC50 value (nM) ± SD, N=3 unless otherwise indicated, MV522 Target Cell Line, 2 hr exposure, 2 hr exposure
# [6] = tested on: Prostate LnCAP (positive PSA); assay: Activity of PSA cleavable analogs against PSA positive cell line, 48 hour exposure; format: cell-based; settings: N=3, mean ± SD
# MCF7 (ER positive) = assay: Cytotoxicity, 2 hour exposure, cells expressing the estrogen receptor; format: cell-based; settings: Homo sapiens, N=3, mean ± SD
# Source text: (§1) MCF7 over express estrogen alpha-receptors.
# (§2) MCF7 cells over express estrogen alpha-receptors.
# (§3) The foregoing description of embodiments of the methods, systems, and components of the present invention has been provided for the purposes of illustration and description. It is not intended to be exhaustive or to limit the invention to the precise forms disclosed. Many modifications and variations will be apparent to one of ordinary skill in the relevant arts. For example, steps performed in the embodiments of the invention disclosed can be performed in alternate orders, certain steps can be omitted, and additional steps can be added. The embodiments were chosen and described in order to best explain the principles of the invention and its practical application, thereby enabling others skilled in the art to understand the invention for various embodiments and with various modifications that are suited to the particular used contemplated. Other embodiments are possible and are covered by the invention. Such embodiments will be apparent to persons skilled in the relevant art(s) based on the teachings contained herein. The breadth and scope of the present invention should not be limited by any of the above-described exemplary embodiments, but should be defined only in accordance with the following claims and their equivalents.
# HT29 (ER Negative) = assay: Cytotoxicity, 2 hour exposure, cells not expressing the estrogen receptor; format: cell-based; settings: Homo sapiens, HT-29, N=3, mean ± SD
# Source text: as §1, §2, §3
# NCI 60 cell line panel [7] = assay: NCI DTP 60 cell line screen assay; settings: for Cytotoxicity: ability to actually kill tumor cells versus only inhibiting growth
# Source text: An ADC is engulfed by a tumor cell, transported to the endosomes (pH < 6.0) and then into the lysozomes (pH < 4). […] 4) Cancer cells can become resistant to various toxins and drugs through the development of what is termed multi-drug resistance. This process is known to occur through several different mechanisms.
# [8] = tested on: Prostate DuPro (trace PSA); assay: Activity of PSA cleavable analogs against trace PSA cell line, 48 hour exposure; format: cell-based; settings: N=3, mean ± SD
# [9] = tested on: Prostate PC3 (negative PSA); assay: Activity of PSA cleavable analogs against PSA negative cell line, 48 hour exposure; format: cell-based; settings: N=3, mean ± SD
# [10] = read-out: Mean IC50 value (nM) ± SD, N=3 unless otherwise indicated, 8392B Nontarget Cell Line, 48 hr exposure, 8392B nontarget cell line, mean ± SD, N=3 unless otherwise indicated
# [11] = MV522 target cell line, mean ± SD, N=3 unless otherwise indicated
Compound,IC50 (8392B cell line [1]) [nM],IC50 (8392B cell line [2]; [10]) [nM],IC50 (MV522 cell line [3]) [nM],IC50 (MV522 cell line [5]; [11]) [nM],other results
CC1=C(CNC(=O)NCCO)C2=C(C)C3(CC3)[C@@](C)(O)C(=O)C2=C1 [compound 279],> 90000,> 9000,190 ± 20,,
COc1cc2cc(c1Cl)N(C)C(=O)C[C@H](OC(=O)[C@H](C)N(C)C(C)=O)[C@]1(C)O[C@H]1[C@H](C)[C@@H]1C[C@@](O)(NC(=O)O1)[C@H](OC)/C=C/C=C(\C)C2 [Maytansine],,,,,Mean TGI cytostatic (NCI 60 cell line panel [4]): 318 nM
CC1=CC2=C(C)C3(CC3)C(C)(O)C(=NO)C2=C1 (stereo not shown) [compound 224],> 200000,> 130000,> 130000,> 200000,
CC(=O)N1C[C@H](O)C[C@H]1C(=O)N[C@@H](CO)C(=O)N[C@@H](CO)C(=O)N[C@H](C(=O)N[C@@H](CCC(N)=O)C(=O)N[C@@H](CO)C(=O)N[C@@H](CO)C(=O)N1CCC[C@H]1C(=O)O[C@@H]1C2=C(C)C3(CC3)[C@@](C)(O)C(=O)C2=C[C@@]1(C)CO[Si](C)(C)C(C)(C)C)C1CCCCC1 [compound 215],,,490 ± 120,,IC50 [6]: > 20 µM
CC1=C2C(O)C(C)(C)C3CC23C(=O)C(C)(O)C12CC2 (stereo not shown) [compound 252],> 380000,> 380000,,> 380000,
CC1=C(CNC(=O)NO)C2=C(C)C3(CC3)[C@@](C)(O)C(=O)C2=C1 [compound 277],31000,9800,190 ± 20,,
CO[C@@H]1[C@H](O)CC[C@]2(CO2)[C@H]1[C@@]1(C)O[C@@H]1CC=C(C)C [Fumagillol],,,,,"Mean TGI cytostatic (NCI 60 cell line panel [4]): 9,850 nM; GI50 (NCI 60 cell line panel [4]): 6.13 µM"
CC1=C(Cn2ccc(=O)[nH]c2=O)C2=C(C)C3(CC3)[C@@](C)(O)C(=O)C2=C1 [compound 289],> 290000,> 8800,530 ± 150,51 ± 4,
CC1=C2C(=CC(C)(C)[C@@H]2O)C(=O)[C@](C)(O)C12CC2 [Illudin M],,,,,CC50 (NCI 60 cell line panel [4]): 0.291 µM; Mean TGI cytostatic (NCI 60 cell line panel [4]): 20 nM; GI50 (NCI 60 cell line panel [4]): 0.003 µM; IC50 (MCF7 (ER positive)): 0.48 ± 0.13 µM; IC50 (HT29 (ER Negative)): 0.52 ± 0.1 µM
CC(=O)ON(C(C)=O)c1ccc(C(=O)OC[C@]2(C)C=C3C(=O)[C@](C)(O)C4(CC4)C(C)=C3C2OC(=O)c2ccc(N(OC(C)=O)C(C)=O)cc2)cc1 (stereo partly shown) [compound 140],,> 14000,> 14000,,
CC1=C(CCCOC(=O)c2cn(CC3=C(C)C=C4C(=O)[C@](C)(O)C5(CC5)C(C)=C43)nn2)C2=C(C)C3(CC3)[C@@](C)(O)C(=O)C2=C1 [compound 257],,,320 ± 30,,
CC1=C(CNC(=O)NCCCl)C2=C(C)C3(CC3)[C@@](C)(O)C(=O)C2=C1 [compound 282],> 85000,> 8500,,680 ± 60,
COC(=O)C1=C(C(=O)OC)C23C=C(C)C1C2=C(C)C1(CC1)[C@@](C)(O)C3O (stereo partly shown) [compound 141],13700 ± 1900,,3700 ± 800,,
CC[C@H](C)[C@H](NC(=O)[C@H]1CCCCN1C)C(=O)N(COC(=O)CC(C)C)[C@H](C[C@@H](OC(C)=O)c1nc(C(=O)N[C@@H](Cc2ccc(O)cc2)C[C@H](C)C(=O)O)cs1)C(C)C [Tubulysin A],,,,,"CC50 (NCI 60 cell line panel [4]): > 10 µM; Mean TGI cytostatic (NCI 60 cell line panel [4]): 1,318 nM; GI50 (NCI 60 cell line panel [4]): 0.012 µM"
CC1=C(CCCNS(=O)(=O)NO)C2=CC3(CC3)C(C)(O)C(=O)C2=C1 (stereo not shown) [compound 265],,,8 ± 1,810 ± 20,
CC1=C(CCCOC(=O)[C@@H]2CCCN2C(=O)[C@H](CO)NC(=O)OC(C)(C)C)C2=C(C)C3(CC3)[C@@](C)(O)C(=O)C2=C1 [compound 208],25000,,930 ± 160,,
CC1=C2C(=CC(C)(CO[Si](C)(C)C(C)(C)C)C2OC(=O)c2ccc(S(=O)(=O)F)cc2)C(=O)C(C)(O)C12CC2 (stereo not shown) [compound 219],> 52000,> 52000,> 52,> 52000,

Compound,IC50 (8392B cell line [1]) [nM],IC50 (8392B cell line [2]; [10]) [nM],IC50 (MV522 cell line [3]) [nM],IC50 (MV522 cell line [5]; [11]) [nM],other results
C=C1C[C@H]2C=Nc3cc(OCCCOc4cc5c(cc4OC)C(=O)N4CC(=C)C[C@H]4C=N5)c(OC)cc3C(=O)N2C1 [Pyrrolobenzodiazepines],,,,,Mean TGI cytostatic (NCI 60 cell line panel [4]): 302 nM; GI50 (NCI 60 cell line panel [4]): 0.007 µM
CC(=O)OCC1(C)C(OC(C)=O)C2=C(C)C3(CC3)C(C)(O)C(=O)C23CC31 (stereo not shown) [compound 250],> 275000,137000,137000,99000,
CC1=C(CO)C2=C(C)C3(CC3)[C@@](C)(O)C(=O)C2=C1 [compound 002],,,,,"MDR Activity (NCI 60 cell line panel [7]): Yes; Activity Value (NCI 60 cell line panel [7]; negative = lyses tumor cells, zero = no growth, positive = slower growth): -15; IC50 (MV522 cell line [5]; MV522, 2 h): 110 ± 40 nM"
CC1=C(CCCOC(=O)NCCCl)C2=C(C)C3(CC3)[C@@](C)(O)C(=O)C2=C1 [compound 238],,,57 ± 8,780 ± 190,
CC1=C(CCCNC(=O)[C@H](CC(C)C)NC(=O)[C@H](CCC(N)=O)NC(=O)[C@H](CC(C)C)NC(=O)[C@H](CCCCN)NC(=O)[C@H](CO)NC(=O)[C@H](CO)NC(=O)[C@H](Cc2c[nH]cn2)NC(=O)N2CCOCC2)C2=C(C)C3(CC3)[C@@](C)(O)C(=O)C2=C1 [compound 221] ({Morpholide-CO}-HSSKLQL-X2),> 21000,> 21000,2500,> 21000,IC50 [8]: 13 µM; IC50 [6]: 0.8 ± 0.1 µM; IC50 [9]: > 21 µM
CC1=C(CCCNS(=O)(=O)c2ccc(C)cc2)C2=C(C)C3(CC3)[C@@](C)(O)C(=O)C2=C1 [compound 242],,,580 ± 150,,
CC(=O)OCC1(C)C=C2C(=O)[C@](C)(O)C3(CC3)C(C)=C2C1O (stereo partly shown) [compound 159],13700,,120 ± 10,,"IC50 (8392B cell line [2]; 48 h, read-out: Mean IC50 value (nM) ± SD, N=3 unless otherwise indicated, 8392B Nontarget Cell Line, 48 hr exposure): < 10 nM; MDR Activity (NCI 60 cell line panel [7]): Yes; Cytotoxicity (NCI 60 cell line panel [7]): Yes; IC50 (MV522 cell line [5]; MV522, 2 h): 2700 ± 400 nM"
CC1=C(CSc2nnnn2-c2ccc(O)cc2)C2=C(C)C3(CC3)[C@@](C)(O)C(=O)C2=C1 [compound 154],> 70000,,,> 70000,
CC1=C(CSC[C@H](NC(=O)[C@H](CCCNC(=N)N)NC(=O)CNC(=O)[C@H](CC(N)=O)NC(=O)[C@@H](N)CSCC2=C(C)C=C3C(=O)[C@](C)(O)C4(CC4)C(C)=C32)C(=O)O)C2=C(C)C3(CC3)[C@@](C)(O)C(=O)C2=C1 [compound 100] (H-C(X4)NGRC(X4)-OH),,,1700 ± 500,> 10000,
CCCCCCCC/C=C/CCCCCCCC(=O)OCC1=C(C)C=C2C(=O)[C@](C)(O)C3(CC3)C(C)=C21 [compound 226],> 59000,> 59000,> 59000,> 59000,
CC1=C2C(=CC(C)(O)C2O)C(=NO)C(C)(O)C12CC2 (stereo not shown) [compound 225],> 350000,33000,55000,47000,
CC(=O)N1C[C@H](O)C[C@H]1C(=O)N[C@@H](CO)C(=O)N[C@@H](CO)C(=O)N[C@H](C(=O)N[C@@H](CCC(N)=O)C(=O)N[C@@H](CO)C(=O)N[C@@H](CO)C(=O)N1CCC[C@H]1C(=O)O[C@@H]1C2=C(C)C3(CC3)[C@@](C)(O)C(=O)C2=CC1(C)C)C1CCCCC1 [compound 216],,,,,IC50 [8]: 0.28 ± 0.06 µM; IC50 [6]: 0.19 ± 0.03 µM; IC50 [9]: 0.19 ± 0.01 µM
COC(=O)C1=C(C(=O)OC)C23C=C(C)C1C2=C(C)C1(CC1)[C@@](C)(O)C3=O (stereo partly shown) [compound 142],,,24 ± 7,,MDR Activity (NCI 60 cell line panel [7]): Yes; Cytotoxicity (NCI 60 cell line panel [7]): Yes
CC1=C(CCCNC(=O)NCCO)C2=C(C)C3(CC3)[C@@](C)(O)C(=O)C2=C1 [compound 280],> 83000,> 2800,< 80,,
CC(=O)Oc1ccc(-n2nnnc2SCC2=C(C)C=C3C(=O)[C@](C)(O)C4(CC4)C(C)=C32)cc1 [compound 155],17000,9100 ± 1100,3600 ± 400,8200 ± 1200,
CC1=C(CSCC(N)C(=O)N[C@@H](CCCNC(=N)N)C(=O)NCC(=O)N[C@@H](CC(N)=O)C(=O)NC(CSCC2=C(C)C=C3C(=O)[C@](C)(O)C4(CC4)C(C)=C32)C(=O)O)C2=C(C)C3(CC3)[C@@](C)(O)C(=O)C2=C1 (stereo partly shown) [compound 101] (H-[ξC](X4)RGN[ξC](X4)-OH),,,> 7500,> 8000,
Halichondrin B,,,,,CC50 (NCI 60 cell line panel [4]): > 1 µM; Mean TGI cytostatic (NCI 60 cell line panel [4]): 199 nM
